Laboratory results taken from article PMC6979384, “Characterization of the plant homeodomain (PHD) reader family for their histone tail interactions” (Epigenetics & Chromatin, 2020).
Where no end group is shown, it is not given here.

Experiments:
Experiment in all cases: Histone peptide microarray
Format in all cases: binding, human
KDM5B (1) = conditions: GST-tagged KDM5B (1); histone peptide array; arrays performed twice, n of 4
Summary of the method: (§1)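 Binding of recombinant GST-fused PHD readers (0.5 μM) is detected on an array of 293 histone peptides, modified singly or in combination. An optimized array protocol is followed, and each intensity is the average of quadruplicate measurements with standard deviation.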

CHD5 (PCC) = conditions: GST-tagged CHD5 (PCC = PHD + Dual Chromodomain); histone peptide array; arrays performed twice, n of 4
Summary of the method: as §1

BAZ2B = conditions: GST-tagged BAZ2B; histone peptide array; arrays performed twice, n of 4
Summary of the method: as §1

PHRF1 (RP) = conditions: GST-tagged PHRF1 (RP); histone peptide array; arrays performed twice, n of 4
Summary of the method: as §1

PHF2 = conditions: GST-tagged PHF2; histone peptide array; arrays performed twice, n of 4
Summary of the method: as §1

KDM7A = conditions: GST-tagged KDM7A; histone peptide array; arrays performed twice, n of 4
Summary of the method: as §1

TAF3 = conditions: GST-tagged TAF3; histone peptide array; arrays performed twice, n of 4
Summary of the method: as §1

ING5 = conditions: GST-tagged ING5; histone peptide array; arrays performed twice, n of 4
Summary of the method: as §1

RAG2 = conditions: GST-tagged RAG2; histone peptide array; arrays performed twice, n of 4
Summary of the method: as §1

SP140L = conditions: GST-tagged SP140L; histone peptide array; arrays performed twice, n of 4
Summary of the method: as §1

ING3 = conditions: GST-tagged ING3; histone peptide array; arrays performed twice, n of 4
Summary of the method: as §1

BPTF (PB) = conditions: GST-tagged BPTF (PB = PHD + Bromodomain); histone peptide array; arrays performed twice, n of 4
Summary of the method: as §1

AIRE (PP) = conditions: GST-tagged AIRE (PP); histone peptide array; arrays performed twice, n of 4
Summary of the method: as §1

KDM5A (1) = conditions: GST-tagged KDM5A (1); histone peptide array; arrays performed twice, n of 4
Summary of the method: as §1

KDM5A (3) = conditions: GST-tagged KDM5A (3); histone peptide array; arrays performed twice, n of 4
Summary of the method: as §1

ING4 = conditions: GST-tagged ING4; histone peptide array; arrays performed twice, n of 4
Summary of the method: as §1

CHD5 (PPCC) = conditions: GST-tagged CHD5 (PPCC = Dual PHD + Dual Chromodomain); histone peptide array; arrays performed twice, n of 4
Summary of the method: as §1

ING1 = conditions: GST-tagged ING1; histone peptide array; arrays performed twice, n of 4
Summary of the method: as §1

DPF2 (PPC2W2) = conditions: GST-tagged DPF2 (PPC2W2 = Dual PHD + C2W2-type Zn-finger); histone peptide array; arrays performed twice, n of 4
Summary of the method: as §1

ING2 = conditions: GST-tagged ING2; histone peptide array; arrays performed twice, n of 4
Summary of the method: as §1

PHF23 = conditions: GST-tagged PHF23; histone peptide array; arrays performed twice, n of 4
Summary of the method: as §1

MLL5 = conditions: GST-tagged MLL5; histone peptide array; arrays performed twice, n of 4
Summary of the method: as §1

PHF21A = conditions: GST-tagged PHF21A; histone peptide array; arrays performed twice, n of 4
Summary of the method: as §1

KDM5B (3) = conditions: GST-tagged KDM5B (3); histone peptide array; arrays performed twice, n of 4
Summary of the method: as §1

MORC3 (CW) = conditions: GST-tagged MORC3 (CW = CW-type Zn-finger); histone peptide array; arrays performed twice, n of 4
Summary of the method: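 Readout is array binding signal, reported as the mean and standard deviation over four replicates. Each purified GST-fused PHD domain was incubated at 0.5 μM with a library of 293 modified histone peptides.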

TRIM66 (PB) = conditions: GST-tagged TRIM66 (PB = PHD + Bromodomain); histone peptide array; arrays performed twice, n of 4
Summary of the method: as §1

PHF13 = conditions: GST-tagged PHF13; histone peptide array; arrays performed twice, n of 4
Summary of the method: as §1

CHD4 (PPCC) = conditions: GST-tagged CHD4 (PPCC = Dual PHD + Dual Chromodomain); histone peptide array; arrays performed twice, n of 4
Summary of the method: as §1

PHF8 = conditions: GST-tagged PHF8; histone peptide array; arrays performed twice, n of 4
Summary of the method: as §1

KDM4C (TTP) = conditions: GST-tagged KDM4C (TTP = Tandem Tudor domain + PHD); histone peptide array; arrays performed twice, n of 4
Summary of the method: as §1

DIDO1 = conditions: GST-tagged DIDO1; histone peptide array; arrays performed twice, n of 4
Summary of the method: as §1

H3 (74-84) N-ac: H3 74-84 (Ac-IAQDFKTDLRF; UniProt P68431 75-85, looked up, fragment)
Array Heatmap signal, KDM5B (1) (KDM5B (1)): 0.7009
Array Heatmap signal, CHD5 (PCC) (CHD5 (PCC)): 0.8195
Array Heatmap signal, BAZ2B (BAZ2B): 0.4698
Array Heatmap signal, PHRF1 (RP) (PHRF1 (RP)): 0.4448
Array Heatmap signal, PHF2 (PHF2): 0.5329
Array Heatmap signal, KDM7A (KDM7A): 0.3521
Array Heatmap signal, TAF3 (TAF3): 0.2845
Array Heatmap signal, ING5 (ING5): 0.3669
Array Heatmap signal, RAG2 (RAG2): 0.2671
Array Heatmap signal, SP140L (SP140L): 0.3545
Array Heatmap signal, ING3 (ING3): 0.5027
Array Heatmap signal, BPTF (PB) (BPTF (PB)): 0.3549
Array Heatmap signal, AIRE (PP) (AIRE (PP)): 0.4661
Array Heatmap signal, KDM5A (1) (KDM5A (1)): 0.4913
Array Heatmap signal, KDM5A (3) (KDM5A (3)): 0.4833
Array Heatmap signal, ING4 (ING4): 0.4711
Array Heatmap signal, CHD5 (PPCC) (CHD5 (PPCC)): 0.5613
Array Heatmap signal, ING1 (ING1): 0.5586
Array Heatmap signal, DPF2 (PPC2W2) (DPF2 (PPC2W2)): 0.6686
Array Heatmap signal, ING2 (ING2): 0.6419
Array Heatmap signal, PHF23 (PHF23): 0.5407
Array Heatmap signal, MLL5 (MLL5): 0.5353
Array Heatmap signal, PHF21A (PHF21A): 0.4735
Array Heatmap signal, KDM5B (3) (KDM5B (3)): 0.4839
Array Heatmap signal, MORC3 (CW) (MORC3 (CW)): 0.4011
Array Heatmap signal, TRIM66 (PB) (TRIM66 (PB)): 0.6043
Array Heatmap signal, PHF13 (PHF13): 0.618
Array Heatmap signal, CHD4 (PPCC) (CHD4 (PPCC)): 0.602
Array Heatmap signal, PHF8 (PHF8): 0.3664
Array Heatmap signal, KDM4C (TTP) (KDM4C (TTP)): 0.495
Array Heatmap signal, DIDO1 (DIDO1): 0.7101
